According to patent US11291624B2, “Compositions comprising active botanical ingredients” (CONOPCO, INC., priority 2018, dated 2022):

System: MelaKuits reconstructed human pigmented LSE model
Assay: Inhibition of melanin in a living skin-equivalent (LSE) model
Format: cell-based
Conditions: for Melanin content as % of control: UVB-exposed pigmented LSE, the lower the better
Method: Details of the test are as follows:
Materials: • MelaKuits®, a reconstructed human pigmented LSE model, derived from 3D culture of normal human epidermal keratinocytes and melanocytes from Asian donors.
The pigmented LSE model was exposed to UVB (50 mJ/cm^2) for seven consecutive days day at periodic intervals of 24 hours to stimulate the synthesis of melanin. The extracts were applied topically on each LSE model on day 4 and day 6 with an interval of 48 hours for refreshing. For comparison, a blank experiment was carried out in which the LSE was neither exposed to UV radiation nor was any extract applied thereon. A control experiment was also carried out in which the LSE model was exposed to UV radiation, but no other treatment was followed.
On day 8, the appearance of each LSE model was assessed by photographing them. Thereafter, all the models subjected to the test were separated from their respective inserts and placed on a white plastic plate with the stratum corneum side facing up. The luminance (L*) value was read using a spectrophotometer CM700 (Konica-Minolta). For each model, the luminance was measured thrice, and the mean value was calculated for comparison.

Row | SMILES | Melanin content as % of control (2.5 μM) | Melanin content as % of control (75 μM, topical on day 4 and day 6, read on day 8) | Effectiveness in reducing melanin content, in words (positive control, Table 2)
1 | CC1(C)C=Cc2c(ccc3c2OC[C@@H](c2ccc(O)cc2O)C3)O1 [Glabridin] | 97.1 % of control | – | –
2 | O=c1cc(CO)occ1O [Kojic acid] | – | 77.4 % of control | most effective ingredient
